# The source made the active and inactive calls.
# Legend:
# [1] = target: Dual specificity protein phosphatase 3 (Homo sapiens, UniProt P51452); experiment: SAR VHR1 Fluorescent Assay for In Vitro dose response studies Set 3. [Related pubchem assays (depositor defined):AID1654, AID1661, AID1878]; type: functional
# [2] = target: T1, Apoptotic protease-activating factor 1 (Homo sapiens, UniProt O14727); experiment: activation of Apaf-1 mediated apoptosis – fluorescent, uHTS hits, dose response (AID 588554); type: functional
# T1 sequence (O14727 whole entry): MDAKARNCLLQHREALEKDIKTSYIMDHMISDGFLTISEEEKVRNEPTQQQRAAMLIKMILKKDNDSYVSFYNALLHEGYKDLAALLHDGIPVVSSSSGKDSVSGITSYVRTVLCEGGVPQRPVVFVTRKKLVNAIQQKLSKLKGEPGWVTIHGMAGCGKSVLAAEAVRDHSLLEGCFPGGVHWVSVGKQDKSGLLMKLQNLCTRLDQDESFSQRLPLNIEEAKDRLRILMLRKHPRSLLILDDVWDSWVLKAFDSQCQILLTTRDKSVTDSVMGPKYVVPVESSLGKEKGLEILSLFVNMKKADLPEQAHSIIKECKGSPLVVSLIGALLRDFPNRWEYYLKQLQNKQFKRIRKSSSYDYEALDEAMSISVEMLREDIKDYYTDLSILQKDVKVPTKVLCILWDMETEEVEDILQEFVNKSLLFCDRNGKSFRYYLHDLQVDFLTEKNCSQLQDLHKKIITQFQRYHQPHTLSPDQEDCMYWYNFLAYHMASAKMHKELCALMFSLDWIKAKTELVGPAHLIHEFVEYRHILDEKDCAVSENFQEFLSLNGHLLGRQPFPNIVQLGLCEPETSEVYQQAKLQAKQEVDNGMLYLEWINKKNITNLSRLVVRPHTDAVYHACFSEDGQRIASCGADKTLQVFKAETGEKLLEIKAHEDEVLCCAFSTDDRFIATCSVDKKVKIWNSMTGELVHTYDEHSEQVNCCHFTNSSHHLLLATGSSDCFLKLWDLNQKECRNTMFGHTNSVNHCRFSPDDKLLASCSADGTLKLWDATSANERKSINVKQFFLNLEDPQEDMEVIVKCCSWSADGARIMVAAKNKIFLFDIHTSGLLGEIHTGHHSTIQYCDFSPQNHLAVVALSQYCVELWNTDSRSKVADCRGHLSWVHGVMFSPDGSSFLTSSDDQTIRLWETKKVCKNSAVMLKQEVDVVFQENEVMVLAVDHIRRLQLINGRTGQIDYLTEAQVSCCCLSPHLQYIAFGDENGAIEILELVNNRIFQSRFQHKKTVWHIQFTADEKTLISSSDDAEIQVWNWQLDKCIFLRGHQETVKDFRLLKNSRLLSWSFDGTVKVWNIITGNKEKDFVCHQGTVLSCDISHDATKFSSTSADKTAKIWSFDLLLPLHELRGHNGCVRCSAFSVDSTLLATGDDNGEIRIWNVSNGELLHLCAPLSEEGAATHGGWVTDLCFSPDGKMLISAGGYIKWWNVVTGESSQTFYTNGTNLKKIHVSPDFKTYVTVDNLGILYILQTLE
# [3] = target: Prothrombin (Bos taurus, UniProt P00735); experiment: thrombin inhibition, dose response, biochemical, fluorescence polarization, uHTS hits (AID 602369); type: functional
# [4] = target: 72 kDa type IV collagenase (Homo sapiens, UniProt P08253); experiment: Dose Response validation of uHTS RPN11 inhibitor hits using a MMP-2 Fluorescence assay.; type: functional
# [5] = target: 26S proteasome non-ATPase regulatory subunit 14 (Homo sapiens, UniProt O00487); experiment: inhibition of proteasome subunit RPN11 – biochemical, fluorescence polarization, uHTS hits, confirmation (AID 602368); type: functional
# [6] = target: Induced myeloid leukemia cell differentiation protein Mcl-1 (Homo sapiens, UniProt Q07820); type: functional
# [7] = test system: Streptococcus sp. 'group A'; experiment: growth inhibition of control SK(-) GAS strain, dose response, counter-screen for streptokinase expression inhibitor project, luminescence, kanamycin, BacTiterGlo, confirmation (AID 1900); type: functional, organism-based
# [8] = test system: Streptococcus; experiment: Group A Streptococcus viability loss, dose response, counter-screen for streptokinase expression inhibitor project, luminescence, BacTiterGlo (AID 1915); type: functional, organism-based;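 note: potency for reduction of bacterial viability or growth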
# [9] = target: Keap1/Nrf2 (Homo sapiens, UniProt Q14145); experiment: Keap1-Nrf2 protein-protein interaction inhibitors, dose response, biochemical, fluorescence polarization, cherry-picked samples (AID 588683)
# [10] = target: Beta-adrenergic receptor kinase 1 (Homo sapiens, UniProt P25098); experiment: GRK2 inhibitors displacing RNA aptamer, dose response, biochemical, flow cytometry beads, FAM-aptamer, powder set 1 (AID 588720)
# [11] = Late-stage probe development counterscreen for inhibitors of the Hepatitis C Virus non-structural protein 3 helicase (NS3): luminescence-based cell-based dose response assay to determine whether compounds that inhibit replication of HCV RNA replicon are cytotoxic. [Related pubchem assays (depositor defined):AID1800, AID1830, AID1845, AID1943, AID1945, AID2172, AID2173, AID2474, AID2476]; type: functional
# [12] = target: NS3 (Hepatitis C virus, UniProt A3EZJ3); experiment: PubChem AID 2173; parameters: species or system Hepacivirus hominis
# [13] = test system: INS1; experiment: protection of INS-1E cells from cytokine death, dose response, ATP luminescence, dry powder (AID 488844); type: functional, cell-based; settings: Rattus norvegicus
# [14] = test system: INS1; experiment: protection from cytokine-induced mitochondrial depolarization, dose response, cell-based, INS-1E, JC-1 fluorescence ratio, dry powder (AID 488931); type: functional; settings: Rattus norvegicus
# [15] = target: T2, Sphingosine 1-phosphate receptor 4 (Homo sapiens, UniProt O95977); experiment: S1P4 receptor antagonists, human, late-stage follow-up, cell-based, fluorescence, synthesized analogues (AID 2346); type: functional
# T2 sequence (O95977 whole entry): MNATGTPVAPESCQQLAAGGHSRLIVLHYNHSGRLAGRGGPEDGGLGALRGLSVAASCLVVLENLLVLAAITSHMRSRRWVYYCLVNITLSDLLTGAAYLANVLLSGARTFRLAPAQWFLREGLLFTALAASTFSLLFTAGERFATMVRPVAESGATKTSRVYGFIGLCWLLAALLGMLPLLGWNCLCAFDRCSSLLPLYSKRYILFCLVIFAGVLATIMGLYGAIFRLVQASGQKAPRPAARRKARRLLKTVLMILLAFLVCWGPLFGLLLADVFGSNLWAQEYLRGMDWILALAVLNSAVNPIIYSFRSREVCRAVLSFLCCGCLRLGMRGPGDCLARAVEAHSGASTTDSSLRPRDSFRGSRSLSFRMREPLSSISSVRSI
# [16] = target: Sphingosine 1-phosphate receptor 1 (Homo sapiens, UniProt P21453); experiment: Late stage counterscreen assay for S1P4 antagonists: Fluorescence dose response cell-based screening assay for antagonists of the Sphingosine 1-Phosphate Receptor 1 (S1P1). [Related pubchem assays (depositor defined):AID1510, AID1524, AID1692, AID1853, AID2332, AID489009, AID489017]; type: functional
# [17] = target: Sphingosine 1-phosphate receptor 3 (Homo sapiens, UniProt Q99500); experiment: Late stage counterscreen assay for S1P4 antagonists: Fluorescence dose response cell-based screening assay for antagonists of the Sphingosine 1-Phosphate Receptor 3 (S1P3). [Related pubchem assays (depositor defined):AID1510, AID1524, AID1692, AID1853, AID2332, AID489009, AID489017]; type: functional
# [18] = target: Sphingosine 1-phosphate receptor 5 (Homo sapiens, UniProt Q9H228); experiment: Late stage counterscreen assay for S1P4 antagonists: Fluorescence dose response cell-based screening assay for antagonists of the Sphingosine 1-Phosphate Receptor 5 (S1P5). [Related pubchem assays (depositor defined):AID1510, AID1524, AID1692, AID1853, AID2332, AID489009, AID489017]; type: functional
# [19] = target: Sphingosine 1-phosphate receptor 2 (Homo sapiens, UniProt O95136); experiment: Late stage counterscreen assay for S1P4 antagonists: Fluorescence dose response cell-based screening assay for antagonists of the Sphingosine 1-Phosphate Receptor 2 (S1P2). [Related pubchem assays (depositor defined):AID1510, AID1524, AID1692, AID1853, AID2332, AID489009, AID489017]; type: functional
# [20] = target: SUMO E1/E2 (Homo sapiens, UniProt P63279+Q9UBE0+Q9UBT2); experiment: SAR analysis of SUMOylation using HTRF in an in-Vitro dose response assay. [Related pubchem assays (depositor defined):AID2006, AID2011, AID2018, AID2069, AID2658]; type: functional
# [21] = target: T3, Voltage-gated N-type calcium channel alpha-1B subunit/Amyloid beta A4 precursor protein-binding family A member 1 (Homo sapiens, UniProt Q00975+Q02410); experiment: disruptors of Mint-PDZ/N-type channel peptide interaction – biochemical, HTRF, set 2, SAR follow-up (AID 434980); type: functional
# [22] = target: T3, Voltage-gated N-type calcium channel alpha-1B subunit/Amyloid beta A4 precursor protein-binding family A member 1; experiment: disruptors of Mint-PDZ/N-type channel peptide interaction – biochemical, HTRF, SAR follow-up (AID 2489); type: functional
# [23] = target: T4, Short transient receptor potential channel 4 (Mus musculus, UniProt Q9QUQ5); experiment: SAR Analysis for the identification of selective inhibits of the transient receptor potential cation channel C4 (TRPC4): Automated Electrophysiology. [Related pubchem assays (depositor defined):AID2256]; type: functional
# T4 sequence (Q9QUQ5 whole entry): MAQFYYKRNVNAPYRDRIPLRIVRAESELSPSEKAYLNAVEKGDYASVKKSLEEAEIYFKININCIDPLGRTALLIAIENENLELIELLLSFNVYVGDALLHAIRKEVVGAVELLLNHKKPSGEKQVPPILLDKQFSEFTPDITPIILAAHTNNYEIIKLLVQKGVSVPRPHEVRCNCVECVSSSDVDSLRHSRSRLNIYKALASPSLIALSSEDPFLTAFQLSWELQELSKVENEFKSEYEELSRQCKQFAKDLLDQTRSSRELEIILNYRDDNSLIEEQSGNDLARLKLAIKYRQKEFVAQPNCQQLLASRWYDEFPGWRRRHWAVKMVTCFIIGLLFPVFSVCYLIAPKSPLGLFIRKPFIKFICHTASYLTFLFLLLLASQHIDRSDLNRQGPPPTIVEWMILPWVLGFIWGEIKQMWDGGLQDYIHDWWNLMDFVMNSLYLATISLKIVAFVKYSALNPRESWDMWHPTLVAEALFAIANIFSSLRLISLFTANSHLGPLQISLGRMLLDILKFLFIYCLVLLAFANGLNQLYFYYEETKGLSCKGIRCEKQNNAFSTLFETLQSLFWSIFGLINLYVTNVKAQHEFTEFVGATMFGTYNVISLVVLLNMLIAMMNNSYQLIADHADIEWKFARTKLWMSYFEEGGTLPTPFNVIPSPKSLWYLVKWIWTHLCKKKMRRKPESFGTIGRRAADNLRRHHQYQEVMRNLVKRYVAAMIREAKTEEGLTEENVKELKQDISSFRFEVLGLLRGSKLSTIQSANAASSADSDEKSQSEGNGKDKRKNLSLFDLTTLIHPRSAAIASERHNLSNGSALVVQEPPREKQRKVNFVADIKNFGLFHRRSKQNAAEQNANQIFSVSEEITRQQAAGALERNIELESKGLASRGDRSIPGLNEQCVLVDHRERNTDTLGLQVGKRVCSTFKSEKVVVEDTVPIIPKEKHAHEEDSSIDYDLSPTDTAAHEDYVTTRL
# [24] = target: Short transient receptor potential channel 6 (Mus musculus, UniProt Q61143); experiment: TRPC6 inhibition potency of TRPC4 inhibitor analogs, dose response, selectivity assay for selective TRPC4 inhibitor project, HEK293 cells, membrane potential dye, IC50 (AID 492987); type: functional, cell-based
# [25] = target: T4, Short transient receptor potential channel 4; experiment: TRPC4 inhibitor concentration-response, dose response, cell-based, HEK293 TRPC4/mu-opioid, DAMGO stimulus, Fluo-4 (AID 492994); type: functional
# [26] = target: Heat shock protein HSP 90-alpha (Homo sapiens, UniProt P07900); experiment: Luminescence-based dose response biochemical high throughput screening assay for inhibitors of the Heat Shock Protein 90 (HSP90). [Related pubchem assays: 1831 (Summary AID.), 1846 (Confirmation screen.), 1789 (Primary screen.)]
# [27] = target: Luciferin 4-monooxygenase (Photuris pensylvanica, UniProt Q27757); experiment: firefly luciferase enzyme inhibitors, dose response, counter-screen for HSF-1 reporter inhibitor project, biochemical, Cell Titer Glo, luminescence, cherry-picks (AID 588847)
# Sequence of Luciferin 4-monooxygenase (Q27757 whole entry): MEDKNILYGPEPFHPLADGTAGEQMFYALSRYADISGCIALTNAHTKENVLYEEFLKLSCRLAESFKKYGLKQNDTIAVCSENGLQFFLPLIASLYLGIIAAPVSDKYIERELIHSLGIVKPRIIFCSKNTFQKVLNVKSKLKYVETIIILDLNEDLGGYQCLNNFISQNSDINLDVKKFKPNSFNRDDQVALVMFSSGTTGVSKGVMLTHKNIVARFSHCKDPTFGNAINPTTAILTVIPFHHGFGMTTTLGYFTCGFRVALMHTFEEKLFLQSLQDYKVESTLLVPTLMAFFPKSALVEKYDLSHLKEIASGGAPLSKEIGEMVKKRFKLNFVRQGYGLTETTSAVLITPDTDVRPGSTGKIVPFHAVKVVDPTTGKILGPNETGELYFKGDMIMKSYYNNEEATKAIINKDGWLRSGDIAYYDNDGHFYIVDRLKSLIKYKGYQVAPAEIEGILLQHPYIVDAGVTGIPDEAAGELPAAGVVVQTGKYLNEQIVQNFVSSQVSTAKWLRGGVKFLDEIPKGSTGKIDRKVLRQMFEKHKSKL
# T3 sequence (Q00975 whole entry): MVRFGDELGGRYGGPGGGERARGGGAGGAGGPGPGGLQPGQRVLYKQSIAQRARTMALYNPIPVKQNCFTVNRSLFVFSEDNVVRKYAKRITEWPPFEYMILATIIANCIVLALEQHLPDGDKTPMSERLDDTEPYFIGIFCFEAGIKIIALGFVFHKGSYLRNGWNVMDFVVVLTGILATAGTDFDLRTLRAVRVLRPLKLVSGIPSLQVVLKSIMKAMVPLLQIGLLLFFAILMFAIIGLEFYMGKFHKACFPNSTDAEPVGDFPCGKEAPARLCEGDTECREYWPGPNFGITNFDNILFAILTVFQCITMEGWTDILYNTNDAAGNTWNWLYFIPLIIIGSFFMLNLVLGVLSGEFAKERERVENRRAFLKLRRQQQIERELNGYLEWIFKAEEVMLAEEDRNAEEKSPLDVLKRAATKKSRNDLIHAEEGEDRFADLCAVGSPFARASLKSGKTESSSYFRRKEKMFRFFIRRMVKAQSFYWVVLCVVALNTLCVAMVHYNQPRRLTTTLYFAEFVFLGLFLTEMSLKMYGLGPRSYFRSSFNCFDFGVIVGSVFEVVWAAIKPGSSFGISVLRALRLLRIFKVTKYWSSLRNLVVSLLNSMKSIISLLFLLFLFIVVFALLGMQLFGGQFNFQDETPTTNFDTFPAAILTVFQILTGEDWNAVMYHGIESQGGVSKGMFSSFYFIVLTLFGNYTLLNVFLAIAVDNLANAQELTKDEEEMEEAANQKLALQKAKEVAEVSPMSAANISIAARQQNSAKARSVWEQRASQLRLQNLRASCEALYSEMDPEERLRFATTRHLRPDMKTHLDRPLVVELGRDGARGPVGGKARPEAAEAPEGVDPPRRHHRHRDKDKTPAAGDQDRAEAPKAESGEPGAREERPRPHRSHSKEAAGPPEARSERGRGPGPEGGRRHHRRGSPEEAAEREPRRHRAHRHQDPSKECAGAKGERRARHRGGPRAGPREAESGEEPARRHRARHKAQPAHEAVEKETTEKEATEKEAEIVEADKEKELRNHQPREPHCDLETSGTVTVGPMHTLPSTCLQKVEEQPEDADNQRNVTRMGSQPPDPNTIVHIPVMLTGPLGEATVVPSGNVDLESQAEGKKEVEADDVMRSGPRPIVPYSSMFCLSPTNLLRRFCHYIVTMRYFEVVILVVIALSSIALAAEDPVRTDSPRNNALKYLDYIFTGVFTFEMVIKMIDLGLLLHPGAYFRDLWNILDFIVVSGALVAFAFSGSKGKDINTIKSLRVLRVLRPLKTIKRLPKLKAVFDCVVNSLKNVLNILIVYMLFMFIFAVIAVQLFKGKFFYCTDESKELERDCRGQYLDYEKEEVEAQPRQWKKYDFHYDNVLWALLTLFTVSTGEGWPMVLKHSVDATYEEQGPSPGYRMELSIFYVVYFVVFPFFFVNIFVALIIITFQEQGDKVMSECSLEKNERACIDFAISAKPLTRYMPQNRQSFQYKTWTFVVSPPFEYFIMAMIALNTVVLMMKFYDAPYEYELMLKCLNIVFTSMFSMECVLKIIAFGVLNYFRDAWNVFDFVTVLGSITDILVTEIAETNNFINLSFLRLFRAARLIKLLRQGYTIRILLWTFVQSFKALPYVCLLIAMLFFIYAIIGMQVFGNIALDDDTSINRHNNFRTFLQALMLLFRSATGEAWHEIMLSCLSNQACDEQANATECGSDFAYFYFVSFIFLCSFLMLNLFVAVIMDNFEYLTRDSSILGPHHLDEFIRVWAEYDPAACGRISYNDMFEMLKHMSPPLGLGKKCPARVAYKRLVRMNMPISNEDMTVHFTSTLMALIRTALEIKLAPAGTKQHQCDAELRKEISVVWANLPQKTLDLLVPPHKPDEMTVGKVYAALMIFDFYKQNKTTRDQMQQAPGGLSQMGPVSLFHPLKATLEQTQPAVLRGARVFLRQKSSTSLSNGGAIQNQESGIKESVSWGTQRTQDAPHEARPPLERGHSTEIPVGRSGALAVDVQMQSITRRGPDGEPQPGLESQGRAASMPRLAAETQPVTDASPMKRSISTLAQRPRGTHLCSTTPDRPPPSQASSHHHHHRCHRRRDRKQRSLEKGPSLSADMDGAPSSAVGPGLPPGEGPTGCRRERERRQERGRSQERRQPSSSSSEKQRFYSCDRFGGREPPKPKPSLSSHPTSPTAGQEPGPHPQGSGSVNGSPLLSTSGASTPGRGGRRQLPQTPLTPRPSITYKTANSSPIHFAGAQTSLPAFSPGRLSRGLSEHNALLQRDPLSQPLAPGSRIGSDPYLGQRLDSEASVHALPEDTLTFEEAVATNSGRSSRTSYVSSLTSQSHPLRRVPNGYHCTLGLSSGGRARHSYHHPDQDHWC
# T3 sequence (Q02410 whole entry): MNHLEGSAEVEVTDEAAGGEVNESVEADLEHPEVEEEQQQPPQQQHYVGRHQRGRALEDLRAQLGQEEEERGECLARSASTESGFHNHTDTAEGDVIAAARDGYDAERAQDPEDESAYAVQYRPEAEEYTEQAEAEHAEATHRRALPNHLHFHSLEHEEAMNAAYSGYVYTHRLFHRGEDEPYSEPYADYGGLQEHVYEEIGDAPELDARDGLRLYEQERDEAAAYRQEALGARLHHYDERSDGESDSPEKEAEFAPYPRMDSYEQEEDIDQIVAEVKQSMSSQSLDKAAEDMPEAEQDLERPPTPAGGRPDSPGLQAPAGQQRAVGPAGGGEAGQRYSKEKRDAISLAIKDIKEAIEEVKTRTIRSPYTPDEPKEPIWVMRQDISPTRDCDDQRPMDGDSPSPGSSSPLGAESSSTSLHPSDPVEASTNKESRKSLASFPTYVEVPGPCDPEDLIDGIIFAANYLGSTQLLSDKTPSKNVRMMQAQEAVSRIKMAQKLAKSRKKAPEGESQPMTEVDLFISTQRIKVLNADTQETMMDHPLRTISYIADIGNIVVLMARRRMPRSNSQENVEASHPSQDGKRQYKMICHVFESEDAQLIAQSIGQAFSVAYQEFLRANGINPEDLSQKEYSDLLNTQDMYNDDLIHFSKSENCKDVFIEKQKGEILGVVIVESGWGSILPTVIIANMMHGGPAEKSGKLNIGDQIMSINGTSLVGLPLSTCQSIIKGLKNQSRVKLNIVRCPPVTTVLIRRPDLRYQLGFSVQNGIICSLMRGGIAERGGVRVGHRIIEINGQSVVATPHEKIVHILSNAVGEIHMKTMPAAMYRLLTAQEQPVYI
# Sequence of 72 kDa type IV collagenase (P08253 whole entry): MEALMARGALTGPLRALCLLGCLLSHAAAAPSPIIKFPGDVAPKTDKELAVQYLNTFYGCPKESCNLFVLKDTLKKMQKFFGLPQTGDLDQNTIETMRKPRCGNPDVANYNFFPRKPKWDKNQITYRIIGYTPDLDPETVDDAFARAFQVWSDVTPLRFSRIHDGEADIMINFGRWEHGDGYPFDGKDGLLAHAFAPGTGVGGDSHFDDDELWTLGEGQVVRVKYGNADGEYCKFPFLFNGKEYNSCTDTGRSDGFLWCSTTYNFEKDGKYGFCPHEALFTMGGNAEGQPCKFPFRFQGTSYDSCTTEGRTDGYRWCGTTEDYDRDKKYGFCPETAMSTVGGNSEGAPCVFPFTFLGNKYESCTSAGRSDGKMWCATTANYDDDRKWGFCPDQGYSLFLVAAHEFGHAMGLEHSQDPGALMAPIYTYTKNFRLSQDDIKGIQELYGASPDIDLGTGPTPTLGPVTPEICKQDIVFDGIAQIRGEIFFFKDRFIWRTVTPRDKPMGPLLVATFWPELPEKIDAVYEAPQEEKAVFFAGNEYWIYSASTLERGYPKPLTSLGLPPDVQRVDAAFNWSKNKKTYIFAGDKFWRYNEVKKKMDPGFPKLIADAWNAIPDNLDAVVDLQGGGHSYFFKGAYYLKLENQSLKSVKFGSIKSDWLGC
# Sequence of Induced myeloid leukemia cell differentiation protein Mcl-1 (Q07820 whole entry): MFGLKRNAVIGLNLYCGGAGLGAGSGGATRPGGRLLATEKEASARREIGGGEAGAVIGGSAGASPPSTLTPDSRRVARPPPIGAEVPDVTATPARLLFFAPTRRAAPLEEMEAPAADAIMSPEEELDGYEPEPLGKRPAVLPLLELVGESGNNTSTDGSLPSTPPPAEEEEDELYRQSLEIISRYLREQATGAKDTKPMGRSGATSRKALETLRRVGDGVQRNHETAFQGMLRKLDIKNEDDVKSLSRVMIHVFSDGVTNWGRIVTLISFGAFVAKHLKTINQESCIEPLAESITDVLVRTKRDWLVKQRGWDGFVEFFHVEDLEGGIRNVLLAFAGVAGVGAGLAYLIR
# Sequence of Sphingosine 1-phosphate receptor 2 (O95136 whole entry): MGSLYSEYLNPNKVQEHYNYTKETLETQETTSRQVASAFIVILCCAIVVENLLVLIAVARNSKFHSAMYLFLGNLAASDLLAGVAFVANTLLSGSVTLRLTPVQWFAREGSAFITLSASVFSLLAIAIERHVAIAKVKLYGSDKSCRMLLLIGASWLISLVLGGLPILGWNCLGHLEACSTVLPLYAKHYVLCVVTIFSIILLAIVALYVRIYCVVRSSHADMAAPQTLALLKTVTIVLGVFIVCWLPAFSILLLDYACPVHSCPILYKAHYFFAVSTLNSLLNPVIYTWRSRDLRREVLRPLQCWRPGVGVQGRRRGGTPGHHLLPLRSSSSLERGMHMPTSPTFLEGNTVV
smiles,measurement,setting,value
COc1cccc2sc(NC(=O)c3ccc(C#N)cc3)nc12,IC50,[1],57.6 µM (active)
O=C(O)CCCN1C(=O)/C(=C\c2ccc(-c3nc4ccccc4s3)o2)SC1=S,EC50,[2],5.12 µM (active)
same,IC50,[3],70.3 µM (active)
same,IC50,[4],> 100 µM (inactive)
same,IC50,[5],5.31 µM (active)
same,IC50,[6],1.38 µM (active)
same,EC50,[7],3.67 µM (active)
same,EC50,[8],7.32 µM (active)
COc1cc(OC)c(S(=O)(=O)Nc2ccccc2C(=O)O)cc1S(=O)(=O)Nc1ccccc1C(=O)O,AC50,[9],> 52 µM (inactive)
Cc1ccccc1NC(=O)CCS(=O)(=O)c1ccc(Br)cc1,EC50,[10],11.4 µM (active)
Cc1ccc(C(=O)C2=C(O)C(=O)N(Cc3ccco3)C2c2cccc(Cl)c2)o1 (configuration not stated),CC50,[11],> 100 µM (inactive)
same,IC50,[12],5.36 µM (active)
COc1ccc(S(=O)(=O)N(C)C[C@@H]2Oc3c(NC(=O)Nc4cccc5ccccc45)cccc3C(=O)N([C@@H](C)CO)C[C@@H]2C)cc1,AC50,[13],37.6 µM (active)
same,AC50,[14],48 µM (active)
CCc1cccc(C)c1NC(=O)c1ccc(-c2ccccc2Cl)o1,IC50,[15],0.269 µM (active)
same,IC50,[16],> 25 µM (inactive)
same,IC50,[17],> 25 µM (inactive)
same,IC50,[18],> 25 µM (inactive)
same,IC50,[19],> 25 µM (inactive)
CN(Cc1ccc(F)cc1)C(=O)COC(=O)c1cc(-c2ccco2)nc2ccccc12,IC50,[20],2.41 µM (active)
same,IC50,[21],11.5 µM (active)
same,IC50,[22],19.1 µM (active)
Cc1ccc2nc(N3CCCCC3)cc(C)c2c1,IC50,[23],5.49 µM (active)
same,IC50,[24],8.58 µM (active)
same,IC50,[25],10.2 µM (active)
CC(C)Sc1nc(SCC(=O)NCc2ccco2)c2c3c(sc2n1)COC(C)(C)C3,IC50,[26],8.37 µM (active)
same,AC50,[27],> 52 µM (inactive)
